US20140235627A1, “ß2-ADRENOCEPTOR AGONIST FOR IMPROVEMENT OF EXERCISE TOLERANCE” (BOEHRINGER INGELHEIM INTERNATIONAL GMBH, priority 2012, published 2014)

Experiments:
Type in all cases: in vivo, human
patients with COPD [1] = assay: Endurance time during constant work rate cycle ergometry at 75% Wcap (studies 1222.37 and 1222.38); settings: after 6 weeks
Source text: While, the FDA COPD draft guidance for industry notes that—assessment of exercise capacity by treadmill or cycle ergometry combined with lung volume assessment potentially can be a tool to assess efficacy of a drug (Guidance for industry: chronic obstructive pulmonary disease: developing drugs for treatment (draft guidance, November 2007). Rockville: U.S. Department of Health and Human Services, Food and Drug Administration, Center for Drug Evaluation and Research (CDER) (2007)) two studies (1222.37 & 1222.38) were designed to evaluate the effects of olodaterol on improvement of exercise.
(§1) Constant work rate cycle ergometry at 75% Wcap was selected as the exercise modality based on previous experience with other bronchodilators. The primary efficacy endpoint was endurance time, while IC at isotime and the intensity of breathing discomfort at isotime were key secondary endpoints. Isotime was defined as the endurance time of the constant work rate exercise test of shortest duration, which ensured that IC and intensity of breathing discomfort were compared across treatments at the same time of exercise for an individual.
At baseline, the geometric mean exercise endurance time during constant work rate cycle ergometry to symptom limitation at 75% of maximal work capacity was 414 seconds (6 minutes 54 seconds) in study 1222.37 and 374 seconds (6 minutes 14 seconds) in study 1222.38.

patients with COPD [2] = assay: Inspiratory capacity (IC) at isotime during exercise (studies 1222.37 and 1222.38); settings: after 6 weeks
Source text: as §1

patients with COPD [3] = assay: Intensity of breathing discomfort (Borg Scale) at isotime during exercise (studies 1222.37 and 1222.38); settings: after 6 weeks
Source text: as §1

patients with COPD [4] = assay: Rescue medication use (electronic diary) in 48-week pivotal studies; settings: for Reduction in daytime rescue bronchodilator use compared to placebo / Reduction in nighttime rescue bronchodilator use compared to placebo: at 48 weeks
Experimental: Additionally to that rescue medication use was assessed in 48-week pivotal studies using an electronic diary, indicated whether the bronchodilating effects of olodaterol provided sufficient symptomatic benefit to reduce the need for albuterol to control symptoms on a daily and nightly basis.

[5] = study 1222.37, olodaterol 10 μg
[6] = study 1222.38, olodaterol 10 μg
[7] = study 1222.37, olodaterol 5 μg, listed as olodaterol
[8] = study 1222.37, olodaterol 10 μg, listed as olodaterol
[9] = study 1222.38, olodaterol 5 μg, listed as olodaterol
[10] = study 1222.38, olodaterol 10 μg, listed as olodaterol

## COc1ccc(CC(C)(C)NC[C@H](O)c2cc(O)cc3c2OCC(=O)N3)cc1 [Olodaterol]
Patients with COPD [1]; study 1222.37, olodaterol 5 μg
  Adjusted Mean Endurance Time, Treatment Mean (SE): 421.58 (13.459) Seconds
  Endurance time increase compared with placebo: 14.0%
Patients with COPD [1]; [5]
  Adjusted Mean Endurance Time, Treatment Mean (SE): 420.72 (13.602) Seconds
  Endurance time increase compared with placebo: 13.8%
Patients with COPD [1]; study 1222.38, olodaterol 5 μg
  Adjusted Mean Endurance Time, Treatment Mean (SE): 396.31 (13.680) Seconds
  Endurance time increase compared with placebo: 11.8%
Patients with COPD [1]; [6]
  Adjusted Mean Endurance Time, Treatment Mean (SE): 391.45 (13.566) Seconds
  Endurance time increase compared with placebo: 10.5%
Patients with COPD [2]; study 1222.37, olodaterol 5 μg
  Adjusted Mean Inspiratory Capacity at Isotime During Exercise, Treatment mean (SE): 2.099 (0.038) L
  Inspiratory Capacity at Isotime, Mean (SE) compared to placebo: 0.182 (0.036) L
Patients with COPD [2]; [7]
  Inspiratory Capacity at Isotime, Mean (SE) compared to placebo: statistically significant increase
Patients with COPD [2]; [5]
  Adjusted Mean Inspiratory Capacity at Isotime During Exercise, Treatment mean (SE): 2.091 (0.038) L
  Inspiratory Capacity at Isotime, Mean (SE) compared to placebo: 0.174 (0.036) L
Patients with COPD [2]; [8]
  Inspiratory Capacity at Isotime, Mean (SE) compared to placebo: statistically significant increase
Patients with COPD [2]; study 1222.38, olodaterol 5 μg
  Adjusted Mean Inspiratory Capacity at Isotime During Exercise, Treatment mean (SE): 2.246 (0.039) L
  Inspiratory Capacity at Isotime, Mean (SE) compared to placebo: 0.084 (0.035) L
Patients with COPD [2]; [9]
  Inspiratory Capacity at Isotime, Mean (SE) compared to placebo: statistically significant increase
Patients with COPD [2]; [6]
  Adjusted Mean Inspiratory Capacity at Isotime During Exercise, Treatment mean (SE): 2.328 (0.039) L
  Inspiratory Capacity at Isotime, Mean (SE) compared to placebo: 0.166 (0.034) L
Patients with COPD [2]; [10]
  Inspiratory Capacity at Isotime, Mean (SE) compared to placebo: statistically significant increase
Patients with COPD [3]; study 1222.37, olodaterol 5 μg
  Intensity of Breathing Discomfort at Isotime During Exercise, Treatment mean (SE): 5.104 (0.182) Borg Scale
  Intensity of Breathing Discomfort at Isotime, Difference to placebo Mean (SE): −0.766 (0.223) Borg Scale
Patients with COPD [3]; [7]
  Intensity of Breathing Discomfort at Isotime, Difference to placebo Mean (SE): statistically significant reduction
Patients with COPD [3]; [5]
  Intensity of Breathing Discomfort at Isotime During Exercise, Treatment mean (SE): 5.235 (0.185) Borg Scale
  Intensity of Breathing Discomfort at Isotime, Difference to placebo Mean (SE): −0.634 (0.225) Borg Scale
Patients with COPD [3]; [8]
  Intensity of Breathing Discomfort at Isotime, Difference to placebo Mean (SE): statistically significant reduction
Patients with COPD [3]; study 1222.38, olodaterol 5 μg
  Intensity of Breathing Discomfort at Isotime During Exercise, Treatment mean (SE): 5.250 (0.180) Borg Scale
  Intensity of Breathing Discomfort at Isotime, Difference to placebo Mean (SE): −0.336 (0.214) Borg Scale
Patients with COPD [3]; [9]
  Intensity of Breathing Discomfort at Isotime, Difference to placebo Mean (SE): no significant differences
Patients with COPD [3]; [6]
  Intensity of Breathing Discomfort at Isotime During Exercise, Treatment mean (SE): 5.520 (0.181) Borg Scale
  Intensity of Breathing Discomfort at Isotime, Difference to placebo Mean (SE): −0.066 (0.214) Borg Scale
Patients with COPD [3]; [10]
  Intensity of Breathing Discomfort at Isotime, Difference to placebo Mean (SE): no significant differences
Patients with COPD [4]; 1222.11/12, 5 μg
  Reduction in daytime rescue bronchodilator use compared to placebo: −0.455 units
  Reduction in nighttime rescue bronchodilator use compared to placebo: −0.497 units
Patients with COPD [4]; 1222.11/12, 10 μg
  Reduction in daytime rescue bronchodilator use compared to placebo: −0.574 units
  Reduction in nighttime rescue bronchodilator use compared to placebo: −0.775 units
Patients with COPD [4]; 1222.13/14, 5 μg
  Reduction in daytime rescue bronchodilator use compared to placebo: −0.269 units
  Reduction in nighttime rescue bronchodilator use compared to placebo: −0.530 units
Patients with COPD [4]; 1222.13/14, 10 μg
  Reduction in daytime rescue bronchodilator use compared to placebo: −0.337 units
  Reduction in nighttime rescue bronchodilator use compared to placebo: −0.617 units
Patients with COPD [4]; studies 1222.13, 1222.14, once-daily olodaterol
  Reduction in daytime and nighttime rescue medication use relative to twice-daily formoterol: comparable to twice-daily formoterol
